# Laboratory results from patent publication EP4691458A1, “SELF-MICROEMULSION PHARMACEUTICAL PREPARATION COMPOSITION CONTAINING ALK KINASE INHIBITOR AND PREPARATION METHOD THEREFOR” (Shouyao Holdings (Beijing) Co., Ltd., priority 2023, dated 2024).
# Legend:
# [1] = Thermal stability of the compound of formula (I); format: physicochemical; conditions: degradation impurities generated at high temperatures
# Description: (§1) The compound of formula (I) has strong hydrophobicity, poor water solubility, and significant pH dependence. It has high solubility at low pH (about 30 mg/ml at pH 1.2), and the solubility decreases sharply with increasing pH (about 10 ug/ml in water). […] Therefore, it is an urgent problem to overcome the shortcomings of the compound of formula (I), such as strong hydrophobicity, poor water solubility, and thermal instability, and to prepare it into a formulation with stable quality, good patient compliance, and wide clinical applicability.
# [2] = Solubility of the compound of formula (I) at different pH; format: physicochemical
# Description: as §1
smiles,measurement,setting,value
"COc1cc(N2CCC(N(C)C)CC2)ccc1Nc1nc2c(c(Nc3ccccc3S(=O)(=O)C(C)C)n1)CCN2 [compound of formula (I), N^2-(4-(4-(dimethylamino)piperidin-1-yl)-2-methoxyphenyl)-N^4-(2-(isopropylsulfonyl)phenyl)-6,7-dihydro-5H-pyrrolo[2,3-d]pyrimidine-2,4-diamine]",thermal stability,[1],thermally unstable
same,solubility,[2]; in water,~0.01 mg/mL
same,solubility,"[2]; simulated gastric fluid, at pH 1.2",~30 mg/mL
